# In patent US9399788B2, “Method for inspecting susceptibility of bacteria or fungi to antimicrobial drug and system for use in the same” (priority 2011, dated 2016):
# Assays:
# [1] = test system: #2 strain of Pseudomonas aeruginosa (multi-drug resistant strain); assay: MIC by broth microdilution method according to the CLSI standards (standard method); type: cell-based
# [2] = test system: #2 strain of Pseudomonas aeruginosa (multi-drug resistant strain); assay: MIC by method using micro-device 1 (microscope observation of growth and shape in flow channel); type: cell-based; conditions: for MIC: Pseudomonas aeruginosa, read-out: MIC (minimum inhibitory concentration)
# Procedure: Thus, antimicrobial drug solutions were prepared.
# Pseudomonas aeruginosa was pre-cultured at 37° C. for 24 hours using a Mueller-Hinton Agar (Becton, Dickinson and Company) plate. A colony was suspended in a Mueller-Hinton broth so as to have MacFarland=0.5 (OD600=0.132). As Pseudomonas aeruginosa, multi-drug resistant strains #2 and #5 (available from BML) and an S1 strain (susceptibility strain, available from BML) were used.
# The antimicrobial drug solution obtained in the (2) above and the culture solution obtained in the (3) above were mixed at a volume ratio of 1 9, and 1 μL of a resultant mixture was injected into each inlet of a micro-device 1. As a control, sterile water as a substitute for the antimicrobial drug solution and the culture solution were mixed at a volume ratio of 1:9, and 1 μL of a resultant mixture was injected into an inlet of the micro-device 1. Then, the micro-device 1 was placed in a petri dish, and the petri dish was placed in an airtight container. Kimwipe (Trade Mark) containing water was placed in each of the petri dish and the airtight container. The airtight container was placed in an incubator at 37° C. and incubated for 3 hours. The relative humidity of each of the airtight container and the petri dish was 97%.
# The micro-device 1 was taken out of the airtight container, and an increase or decrease in the amount of bacteria and a change in shape relative to the control in an observation area was checked by a microscope, and the MIC (minimum inhibitory concentration) was determined.
# [3] = method using the micro-device, 37° C., 3 hours incubation
Molecule,"MIC ([1]; Pseudomonas aeruginosa, standard method (broth microdilution, CLSI), read-out: MIC (minimum inhibitory concentration))","MIC [2, 3]",determination based on the break point of CLSI ([1]; MIC by standard method),"MIC (minimum inhibitory concentration) ([1]; standard method (broth microdilution, CLSI))",determination based on the break point of CLSI ([2]; MIC by method using the micro-device),"MIC (minimum inhibitory concentration) [2, 3]"
"NCC[C@H](O)C(=O)N[C@@H]1C[C@H](N)[C@@H](O[C@H]2O[C@H](CN)[C@@H](O)[C@H](O)[C@H]2O)[C@H](O)[C@H]1O[C@H]1O[C@H](CO)[C@@H](O)[C@H](N)[C@H]1O [AMK, Amikacin]",64 µg/mL,≥ 32 µg/mL,,,,
"O=C(O)c1cn(C2CC2)c2cc(N3CCNCC3)c(F)cc2c1=O [CPFX, Ciprofloxacin]",,≥ 4 µg/mL,,,,
Imipenem/Cilastatin [IPM],,,Resistance (R),32 µg/mL,Resistance (R),16 µg/mL
